Results published in US12264146B2, “Rho kinase inhibitor, method for preparing same and uses thereof” (BEIJING INCREASE INNOVATIVE DRUG CO., LTD., priority 2018, dated 2025).

Tests used:
[1] = tested on: subarachnoid hemorrhage in rats; assay: Rat subarachnoid hemorrhage (SAH) model by intravascular puncture, Sugawara bleeding score; format: in vivo; set-up: dose or concentration left out as unconfirmed; conditions: tail vein injection, 2 administrations 4 h apart, scored 24 h after first administration (Sugawara)
[2] = tested on: endothelial nitric oxide synthase (eNOS); assay: Endothelial nitric oxide synthase (eNOS) in EA.Hy926 endothelial cells, detection kit; format: cell-based; conditions: EA.Hy926 cell supernatant, 24 h
Experimental: (§1) Commercially available cytokine kits were used to detect the effects of the compounds of the present application on vascular endothelium-derived contracting factor endothelin, vascular endothelium-derived relaxing factor endothelial nitric oxide synthase, nitric oxide, and prostacyclin factor. The detection was performed according to the kit instructions. When testing the effect of the compound of the present application on cytokines, a normal control group, a fasudil hydrochloride group, and high-, medium- and low-dose groups of the compounds of the present application were set up for testing. The fasudil hydrochloride used in this test example was purchased from Beijing Sihuan Pharmaceutical Co., Ltd., with the SFDA approval number of H20173349. The EA.Hy926 cells used in this test example were purchased from Suzhou Beina Chuanglian Biotechnology Co., Ltd.
Detection conditions: EA.Hy926 cells were inoculated at 1×10^5 […] in a 96-well plate, 100 μL per well, and cultured adherently for 24 hours, then the test compound prepared with DMEM medium was added, the normal control group was added with an equal volume of DMEM medium, then the cells were cultured for 24 hours at 37° C., and then the cell supernatant was taken and placed in an EP tube, and centrifuged at 3000 r/min and 4° C. for 15 minutes, the resulting supernatant was transferred to a new EP tube, diluted 3 times, and detected according to the instruction of eNOs detection kit (purchased from Wuhan Elabscience Biotechnology Co., Ltd., Cat. No. AK0017OCT12013), and the detection results were shown in Table 4.

nitric oxide (NO) = assay: Synthesis and secretion of nitric oxide (NO) in EA.Hy926 endothelial cells, NO detection kit; format: cell-based; conditions: EA.Hy926 cell supernatant, 24 h
Experimental: as §1
EA.Hy926 cells were inoculated in a 24-well plate at 5×10^5 cells/mL, 400 μL per well, and cultured adherently for 18 hours, then the supernatant was discarded, the test compound prepared in DMEM medium was added, and an equal volume of DMEM medium was added in the normal control group, then the cells was cultured for 24 h in incubator, and then the cell supernatant was collected and detected according to the instructions of NO detection kit (purchased from Beyotime Institute of Biotechnology, Cat. No. 062617171017), and the detection results were shown in Table 5.

endothelin (ET-1) = assay: Expression of endothelin (ET-1) in EA.Hy926 endothelial cells, detection kit; format: cell-based, human; conditions: EA.Hy926 cell supernatant, 48 h
Experimental: as §1
EA.Hy926 cells were taken and inoculated in a 96-well plate at 5×10^4 cells/mL, 100 μL per well, and cultured adherently for 24 hours, then the test compound prepared in DMEM medium was added, and an equal volume of DMEM medium was added in the normal control group, then the cells were cultured at 37° C. for 48 hours, and then the cell supernatant was taken and placed in an EP tube, and centrifuged at 3000 r/min, 4° C. for 15 min. The resulting cell supernatant was transferred to a new EP tube, diluted twice with culture medium, and detected according to the instruction of the human endothelin detection kit (purchased from Wuhan Boster Biological Engineering Co., Ltd., batch number 59113731009), and the detection results were shown in Table 2.

prostacyclin (PGI2) = assay: Expression of prostacyclin (PGI2) in EA.Hy926 endothelial cells, ELISA kit; format: cell-based; conditions: EA.Hy926 cell supernatant, 24 h
Experimental: as §1
EA.Hy926 cells were taken and inoculated in a 96-well plate at 5×10^4 cells/mL, 100 μL per well, and cultured adherently for 24 hours, then the test compound prepared in DMEM medium was added, and an equal volume of DMEM medium was added in the normal control group, then the cells were cultured at 37° C. for 24 hours, and then the cell supernatant was taken and placed in an EP tube, and centrifuged for 15 min at 3000 r/min and 15° C. The resulting supernatant was transferred to a new EP tube, and then the detection was performed according to the instruction of ELISA kit (purchased from Wuhan Elabscience Biotechnology Co., Ltd., Cat. No. E-EL-0022c), and the detection results were shown in Table 3.

## CCc1cnc(O)c2cccc(S(=O)(=O)N3CCCNC[C@H]3C)c12 [Compound R-YK1607, (R)-4-ethyl-5-((2-methyl-1,4-diazacycloheptan-1-yl)sulfonyl)isoquinolin-1-ol]
[1]
  Cerebral hemorrhage volume score (x ± s): 12.12 ± 2.06
[2]
  expression of endothelial nitric oxide synthase in endothelial cells: Detection result of test compound at low dose (0.4 μM): 2426.66 ± 220.56 pg/mL
  expression of endothelial nitric oxide synthase in endothelial cells: Detection result of test compound at medium dose (2 μM): 2239.70 ± 249.84 pg/mL
  expression of endothelial nitric oxide synthase in endothelial cells: Detection result of test compound at high dose (10 μM): 2298.44 ± 265.33 pg/mL
Nitric oxide (NO)
  nitric oxide secretion in endothelial cells: Detection result of test compound at low dose (0.4 μM): 0.898 ± 0.006 μm
  nitric oxide secretion in endothelial cells: Detection result of test compound at medium dose (2 μM): 0.924 ± 0.032 μm
  nitric oxide secretion in endothelial cells: Detection result of test compound at high dose (10 μM): 1.010 ± 0.006 μm
Endothelin (ET-1)
  expression of endothelin in endothelial cells: Detection result of test compound at low dose (0.4 μM): 248.20 ± 2.28 pg/mL
  expression of endothelin in endothelial cells: Detection result of test compound at medium dose (2 μM): 259.34 ± 7.96 pg/mL
  expression of endothelin in endothelial cells: Detection result of test compound at high dose (10 μM): 237.68 ± 3.34 pg/mL
Prostacyclin (PGI2)
  expression of prostacyclin in endothelial cells: Detection result of test compound at low dose (0.4 μM): 249.20 ± 2.28 pg/mL
  expression of prostacyclin in endothelial cells: Detection result of test compound at medium dose (2 μM): 257.34 ± 7.96 pg/mL
  expression of prostacyclin in endothelial cells: Detection result of test compound at high dose (10 μM): 241.68 ± 3.34 pg/mL

## O=S(=O)(c1cccc2cnccc12)N1CCCNC[C@H]1C1CC1 [Compound R-YK1608, (R)-5-((2-cyclopropyl-1,4-diazacycloheptan-1-yl)sulfonyl)isoquinoline]
[1]
  Cerebral hemorrhage volume score (x ± s): 13.18 ± 1.97
[2]
  expression of endothelial nitric oxide synthase in endothelial cells: Detection result of test compound at low dose (0.4 μM): 2697.85 ± 284.81 pg/mL
  expression of endothelial nitric oxide synthase in endothelial cells: Detection result of test compound at medium dose (2 μM): 2344.00 ± 293.66 pg/mL
  expression of endothelial nitric oxide synthase in endothelial cells: Detection result of test compound at high dose (10 μM): 2269.45 ± 134.54 pg/mL
Nitric oxide (NO)
  nitric oxide secretion in endothelial cells: Detection result of test compound at low dose (0.4 μM): 0.918 ± 0.008 μm
  nitric oxide secretion in endothelial cells: Detection result of test compound at medium dose (2 μM): 0.984 ± 0.042 μm
  nitric oxide secretion in endothelial cells: Detection result of test compound at high dose (10 μM): 1.105 ± 0.007 μm
Endothelin (ET-1)
  expression of endothelin in endothelial cells: Detection result of test compound at low dose (0.4 μM): 233.55 ± 0.12 pg/mL
  expression of endothelin in endothelial cells: Detection result of test compound at medium dose (2 μM): 229.98 ± 11.41 pg/mL
  expression of endothelin in endothelial cells: Detection result of test compound at high dose (10 μM): 239.23 ± 0.75 pg/mL
Prostacyclin (PGI2)
  expression of prostacyclin in endothelial cells: Detection result of test compound at low dose (0.4 μM): 257.55 ± 4.12 pg/mL
  expression of prostacyclin in endothelial cells: Detection result of test compound at medium dose (2 μM): 251.98 ± 10.41 pg/mL
  expression of prostacyclin in endothelial cells: Detection result of test compound at high dose (10 μM): 242.23 ± 1.75 pg/mL

## CC(C)[C@@H]1CNCCCN1S(=O)(=O)c1cccc2c(O)nccc12 [Compound R-YK1609, (R)-5-((2-isopropyl-1,4-diazacycloheptan-1-yl)sulfonyl)isoquinolin-1-ol]
[1]
  Cerebral hemorrhage volume score (x ± s): 12.27 ± 2.02
[2]
  expression of endothelial nitric oxide synthase in endothelial cells: Detection result of test compound at low dose (0.4 μM): 2728.44 ± 257.58 pg/mL
  expression of endothelial nitric oxide synthase in endothelial cells: Detection result of test compound at medium dose (2 μM): 2375.91 ± 287.28 pg/mL
  expression of endothelial nitric oxide synthase in endothelial cells: Detection result of test compound at high dose (10 μM): 2235.87 ± 213.65 pg/mL
Nitric oxide (NO)
  nitric oxide secretion in endothelial cells: Detection result of test compound at low dose (0.4 μM): 0.978 ± 0.028 μm
  nitric oxide secretion in endothelial cells: Detection result of test compound at medium dose (2 μM): 1.014 ± 0.051 μm
  nitric oxide secretion in endothelial cells: Detection result of test compound at high dose (10 μM): 1.115 ± 0.006 μm
Endothelin (ET-1)
  expression of endothelin in endothelial cells: Detection result of test compound at low dose (0.4 μM): 222.75 ± 52.53 pg/mL
  expression of endothelin in endothelial cells: Detection result of test compound at medium dose (2 μM): 232.72 ± 22.83 pg/mL
  expression of endothelin in endothelial cells: Detection result of test compound at high dose (10 μM): 242.03 ± 1.24 pg/mL
Prostacyclin (PGI2)
  expression of prostacyclin in endothelial cells: Detection result of test compound at low dose (0.4 μM): 259.20 ± 2.21 pg/mL
  expression of prostacyclin in endothelial cells: Detection result of test compound at medium dose (2 μM): 260.34 ± 7.94 pg/mL
  expression of prostacyclin in endothelial cells: Detection result of test compound at high dose (10 μM): 238.68 ± 3.34 pg/mL

## CC[C@@H]1CNCCCN1S(=O)(=O)c1cccc2c(OC)nccc12 [Compound R-YK1610, (R)-5-((2-ethyl-1,4-diazacycloheptan-1-yl)sulfonyl)-1-methoxyisoquinoline]
[1]
  Cerebral hemorrhage volume score (x ± s): 12.83 ± 2.05
[2]
  expression of endothelial nitric oxide synthase in endothelial cells: Detection result of test compound at low dose (0.4 μM): 2632.05 ± 235.87 pg/mL
  expression of endothelial nitric oxide synthase in endothelial cells: Detection result of test compound at medium dose (2 μM): 2397.93 ± 280.08 pg/mL
  expression of endothelial nitric oxide synthase in endothelial cells: Detection result of test compound at high dose (10 μM): 2329.68 ± 263.98 pg/mL
Nitric oxide (NO)
  nitric oxide secretion in endothelial cells: Detection result of test compound at low dose (0.4 μM): 0.997 ± 0.057 μm
  nitric oxide secretion in endothelial cells: Detection result of test compound at medium dose (2 μM): 1.068 ± 0.032 μm
  nitric oxide secretion in endothelial cells: Detection result of test compound at high dose (10 μM): 1.121 ± 0.006 μm
Endothelin (ET-1)
  expression of endothelin in endothelial cells: Detection result of test compound at low dose (0.4 μM): 259.20 ± 2.21 pg/mL
  expression of endothelin in endothelial cells: Detection result of test compound at medium dose (2 μM): 260.34 ± 7.94 pg/mL
  expression of endothelin in endothelial cells: Detection result of test compound at high dose (10 μM): 238.68 ± 3.34 pg/mL
Prostacyclin (PGI2)
  expression of prostacyclin in endothelial cells: Detection result of test compound at low dose (0.4 μM): 275.40 ± 9.89 pg/mL
  expression of prostacyclin in endothelial cells: Detection result of test compound at medium dose (2 μM): 267.35 ± 10.69 pg/mL
  expression of prostacyclin in endothelial cells: Detection result of test compound at high dose (10 μM): 253.44 ± 12.48 pg/mL

## CCCC[C@@H]1CNCCCN1S(=O)(=O)c1cccc2c(O)nccc12 [Compound R-YK1611, (R)-5-((2-butyl-1,4-diazacycloheptan-1-yl)sulfonyl)isoquinolin-1-ol]
[1]
  Cerebral hemorrhage volume score (x ± s): 12.41 ± 2.03
[2]
  expression of endothelial nitric oxide synthase in endothelial cells: Detection result of test compound at low dose (0.4 μM): 2652.53 ± 279.27 pg/mL
  expression of endothelial nitric oxide synthase in endothelial cells: Detection result of test compound at medium dose (2 μM): 2291.59 ± 253.56 pg/mL
  expression of endothelial nitric oxide synthase in endothelial cells: Detection result of test compound at high dose (10 μM): 2195.70 ± 187.16 pg/mL
Nitric oxide (NO)
  nitric oxide secretion in endothelial cells: Detection result of test compound at low dose (0.4 μM): 1.095 ± 0.095 μm
  nitric oxide secretion in endothelial cells: Detection result of test compound at medium dose (2 μM): 1.109 ± 0.087 μm
  nitric oxide secretion in endothelial cells: Detection result of test compound at high dose (10 μM): 1.125 ± 0.016 μm
Endothelin (ET-1)
  expression of endothelin in endothelial cells: Detection result of test compound at low dose (0.4 μM): 238.20 ± 2.28 pg/mL
  expression of endothelin in endothelial cells: Detection result of test compound at medium dose (2 μM): 249.34 ± 7.96 pg/mL
  expression of endothelin in endothelial cells: Detection result of test compound at high dose (10 μM): 235.68 ± 3.34 pg/mL
Prostacyclin (PGI2)
  expression of prostacyclin in endothelial cells: Detection result of test compound at low dose (0.4 μM): 232.61 ± 9.70 pg/mL
  expression of prostacyclin in endothelial cells: Detection result of test compound at medium dose (2 μM): 229.98 ± 11.41 pg/mL
  expression of prostacyclin in endothelial cells: Detection result of test compound at high dose (10 μM): 249.23 ± 0.75 pg/mL
